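How tested: cells in 96-well plates exposed to compound for 48 hours at five concentrations. GI50 marks 50% less growth.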 The source made the active and inactive calls. Rule as the data show it: active = GI50 up to about 1.1 µM and inactive = higher.
Experiments:
Assay in all cases: NCI tumour cell line growth inhibition, 48 h
SN12C = tested on: SN12C
HOP-92 = tested on: HOP-92
OVCAR-4 = tested on: OVCAR-4
COLO 205 = tested on: COLO 205
SNB-75 = tested on: SNB-75
U-251 = tested on: U-251
Malme-3M = tested on: Malme-3M
NCI-H23 = tested on: NCI-H23
SW-620 = tested on: SW-620
MOLT-4 = tested on: MOLT-4
SF-268 = tested on: SF-268
SF-295 = tested on: SF-295
A549 = tested on: A549
SK-MEL-28 = tested on: SK-MEL-28
RXF 393 = tested on: RXF 393
UACC-257 = tested on: UACC-257
HT-29 = tested on: HT-29
CCRF-CEM = tested on: CCRF-CEM
HOP-62 = tested on: HOP-62
IGROV-1 = tested on: IGROV-1

Measured: GI50

O=C(NN1C(=O)CS(=O)(=O)C1c1ccc(C(F)(F)F)cc1)c1ccncc1 (stereo not given)
inactive: SN12C > 100 µM | HOP-92 > 100 µM | OVCAR-4 > 100 µM | COLO 205 > 100 µM | SNB-75 > 100 µM | U-251 > 100 µM | Malme-3M > 100 µM | NCI-H23 > 100 µM | SW-620 > 100 µM | MOLT-4 > 100 µM | SF-268 > 100 µM | SF-295 > 100 µM | A549 > 100 µM | SK-MEL-28 > 100 µM | RXF 393 > 100 µM | UACC-257 > 100 µM | HT-29 > 100 µM | CCRF-CEM > 100 µM | HOP-62 > 100 µM

CC1(C)CCc2ccc(OCCC(=O)O)cc2O1
inactive: SN12C > 100 µM | HOP-92 > 100 µM | OVCAR-4 > 100 µM | COLO 205 > 100 µM | SNB-75 83.4 µM | U-251 > 100 µM | Malme-3M > 100 µM | NCI-H23 > 100 µM | SW-620 > 100 µM | MOLT-4 > 100 µM | SF-268 > 100 µM | SF-295 > 100 µM | A549 > 100 µM | HT-29 > 100 µM | IGROV-1 > 100 µM | CCRF-CEM > 100 µM | HOP-62 > 100 µM

COCCOCOC(C)(C)[C@H](CCO)O[Si](c1ccccc1)(c1ccccc1)C(C)(C)C
inactive: SN12C 3.34 µM | HOP-92 10.6 µM | COLO 205 15.9 µM | SNB-75 8.11 µM | U-251 11 µM | Malme-3M 14.3 µM | NCI-H23 15.7 µM | SW-620 11.2 µM | MOLT-4 3.54 µM | SF-268 7.13 µM | SF-295 5.74 µM | A549 6.32 µM | SK-MEL-28 14.9 µM | RXF 393 5.3 µM | UACC-257 8.77 µM | HT-29 8.61 µM | IGROV-1 9.14 µM

CN(C)C(CN)CC1=C(CC(CN)N(C)C)CCC1 (stereo not given)
inactive: SN12C > 100 µM | HOP-92 > 100 µM | OVCAR-4 > 100 µM | COLO 205 > 100 µM | SNB-75 > 100 µM | U-251 > 100 µM | Malme-3M > 100 µM | NCI-H23 > 100 µM | SW-620 > 100 µM | MOLT-4 > 100 µM | SF-268 > 100 µM | SF-295 > 100 µM | A549 > 100 µM | SK-MEL-28 > 100 µM | RXF 393 > 100 µM | UACC-257 > 100 µM | HT-29 > 100 µM | IGROV-1 > 100 µM | CCRF-CEM > 100 µM | HOP-62 > 100 µM

COc1ccc(-c2c(C#N)c(NC(=S)NC(=O)c3ccccc3)nc3c2CCCC3)cc1OC
inactive: SN12C 49 µM | OVCAR-4 45.4 µM | COLO 205 > 100 µM | SNB-75 22.3 µM | U-251 71.1 µM | Malme-3M 29.8 µM | NCI-H23 67.9 µM | SW-620 75.9 µM | MOLT-4 27 µM | SF-268 41.8 µM | SF-295 56.6 µM | A549 52.4 µM | SK-MEL-28 61.4 µM | RXF 393 18.3 µM | UACC-257 46.6 µM | HT-29 58.6 µM | IGROV-1 62.1 µM | CCRF-CEM 50.7 µM | HOP-62 44.9 µM

CC1(C)N/C(=C\C=O)C(C)(C)N1O
inactive: SN12C > 100 µM | HOP-92 > 100 µM | OVCAR-4 > 100 µM | COLO 205 > 100 µM | U-251 > 100 µM | Malme-3M > 100 µM | NCI-H23 > 100 µM | SW-620 > 100 µM | MOLT-4 > 100 µM | SF-268 > 100 µM | SF-295 > 100 µM | A549 > 100 µM | SK-MEL-28 > 100 µM | RXF 393 > 100 µM | UACC-257 > 100 µM | HT-29 > 100 µM | IGROV-1 > 100 µM | CCRF-CEM > 100 µM | HOP-62 > 100 µM

COc1cc2c(cc1OC)C(Cc1c3ccccc3cc3ccccc13)N(C)CC2 (stereo not given)
inactive: SN12C 42 µM | HOP-92 11.4 µM | OVCAR-4 30.7 µM | COLO 205 11.2 µM | SNB-75 14.4 µM | U-251 16.9 µM | NCI-H23 29 µM | SW-620 27 µM | MOLT-4 16 µM | SF-268 29 µM | SF-295 17.4 µM | A549 39.8 µM | SK-MEL-28 20.2 µM | RXF 393 10.5 µM | UACC-257 18.9 µM | HT-29 13.5 µM | IGROV-1 20.7 µM | CCRF-CEM 18.8 µM | HOP-62 21.4 µM

From ChEMBL document CHEMBL1201862, “PubChem BioAssay data set” (2004)
